SMILES strings stand for the structures. Where only a bound is given, the exact number is not on record here.

For one data set, the target named is T1, serotonin transporter (Macaca mulatta, UniProt Q9MYX0).
T1 construct: The serotonin transporter was assayed in caudate-putamen membranes using conditions similar to those for the dopamine transporter; from tissue; host or cells: caudate-putamen membranes of cynomolgus or rhesus monkey brain
Briefly: Serotonin transporter assay: inhibition of {3H}citalopram binding in caudate-putamen membranes. Set-up: species or system rhesus or cynomolgus monkey. As to conditions: IC50 (nM) SERT, monkey caudate-putamen, mean of 2 or more independent experiments in triplicate.

In a further data set the target is T2, dopamine transporter (Macaca fascicularis, UniProt Q9GJT6).
T2 construct: The caudate-putamen was dissected from coronal slices and yielded 1.4±0.4 g tissue; Membranes were prepared as described previously; from tissue; host or cells: caudate-putamen membranes of cynomolgus or rhesus monkey brain
Briefly: Dopamine transporter assay: inhibition of {3H}WIN 35,428 binding in caudate-putamen membranes. Set-up: species or system rhesus or cynomolgus monkey. Conditions: for SERT/DAT: selectivity ratio IC50 SERT / IC50 DAT; for IC50: IC50 (nM) DAT, inhibition of {3H}WIN 35,428 binding, monkey caudate-putamen, mean of 2 or more independent experiments in triplicate.

T1 sequence (Q9MYX0 whole entry): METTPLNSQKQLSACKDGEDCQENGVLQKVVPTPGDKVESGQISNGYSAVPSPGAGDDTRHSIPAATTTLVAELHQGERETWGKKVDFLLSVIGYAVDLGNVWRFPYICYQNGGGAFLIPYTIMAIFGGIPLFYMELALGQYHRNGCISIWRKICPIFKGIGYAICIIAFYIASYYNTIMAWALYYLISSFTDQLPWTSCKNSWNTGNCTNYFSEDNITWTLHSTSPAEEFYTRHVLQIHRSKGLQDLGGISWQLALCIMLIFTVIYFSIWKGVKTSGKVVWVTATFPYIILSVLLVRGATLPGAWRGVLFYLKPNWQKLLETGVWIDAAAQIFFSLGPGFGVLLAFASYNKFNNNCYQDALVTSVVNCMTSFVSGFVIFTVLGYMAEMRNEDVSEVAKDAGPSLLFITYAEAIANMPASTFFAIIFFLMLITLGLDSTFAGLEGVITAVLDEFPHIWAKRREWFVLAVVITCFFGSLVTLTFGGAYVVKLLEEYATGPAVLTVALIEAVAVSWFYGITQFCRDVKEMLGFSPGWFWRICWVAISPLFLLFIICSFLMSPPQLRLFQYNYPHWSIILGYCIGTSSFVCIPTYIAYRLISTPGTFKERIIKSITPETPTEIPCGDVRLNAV
T2 sequence (Q9GJT6 whole entry): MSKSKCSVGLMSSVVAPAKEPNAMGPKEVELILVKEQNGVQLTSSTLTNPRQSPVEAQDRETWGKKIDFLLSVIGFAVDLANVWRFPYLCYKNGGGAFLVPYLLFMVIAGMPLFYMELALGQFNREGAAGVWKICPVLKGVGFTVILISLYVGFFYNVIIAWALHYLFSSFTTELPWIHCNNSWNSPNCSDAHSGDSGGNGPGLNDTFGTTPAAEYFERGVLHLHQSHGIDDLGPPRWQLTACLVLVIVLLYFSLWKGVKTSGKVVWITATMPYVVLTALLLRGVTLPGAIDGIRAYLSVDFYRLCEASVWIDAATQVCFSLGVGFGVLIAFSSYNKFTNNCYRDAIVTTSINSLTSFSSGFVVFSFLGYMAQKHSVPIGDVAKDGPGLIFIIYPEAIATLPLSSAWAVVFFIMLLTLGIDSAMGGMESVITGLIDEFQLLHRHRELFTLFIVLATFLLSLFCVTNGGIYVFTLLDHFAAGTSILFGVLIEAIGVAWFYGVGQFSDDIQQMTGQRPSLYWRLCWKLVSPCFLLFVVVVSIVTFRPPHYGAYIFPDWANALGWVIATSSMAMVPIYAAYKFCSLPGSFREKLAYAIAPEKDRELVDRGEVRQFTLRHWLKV

For the compound `COC(=O)C1=C(c2ccc3ccccc3c2)CC2C(O)CC1N2C` (stereo not drawn) [Compound 7b, 2-Carbomethoxy-3-(2-naphthyl)-6β-hydroxy-8-methyl-8-azabicyclo{3.2.1}oct-2-ene], the melting point fell in the range of 165 to 167 °C. The same compound returned a half-maximal inhibitory concentration (IC50) on serotonin transporter of 260 nM. At dopamine transporter, the SERT/DAT turned out to be 1.
For `COC(=O)[C@@H]1[C@H]2C(=O)C[C@@H](C[C@H]1c1ccc(Cl)c(Cl)c1)N2C` (relative stereo) [Compound 20, 2β-Carbomethoxy-3α-(3,4-dichlorophenyl)-8-methyl-8-azabicyclo{3.2.1}oct-7-one], the melting point is 163.5 to 164.5 °C. Also, the 50% inhibitory concentration (IC50) at serotonin transporter came out at 7040 nM. This compound also returned an IC50 at dopamine transporter of 14.2 nM.
Compound `CCC(=O)[C@@H]1[C@H]2[C@H](O)C[C@@H](C[C@H]1c1ccc(Cl)c(Cl)c1)N2C` (relative stereo) [Compound 26, 1-{3α-(3,4-Dichlorophenyl)-7β-hydroxy-8-methyl-8-azabicyclo{3.2.1}oct-2-yl}propan-1-one] returned a melting point of 113.1 to 114.1 °C. This compound gave a half-inhibitory concentration (IC50) at serotonin transporter of 2520 nM. Besides, the half-maximal inhibitory concentration (IC50) at dopamine transporter came out at 1.1 nM.
On to `COC(=O)[C@H]1[C@@H](c2ccccc2)C[C@@H]2[C@@H](O)C[C@H]1N2C` (relative stereo) [Compound 14d, 2β-Carbomethoxy-3β-phenyl-6β-hydroxy-8-methyl-8-azabicyclo{3.2.1}octane], for which the melting point is 150 to 152 °C. For the same compound, the IC50 on serotonin transporter was 88000 nM. Moreover, the SERT/DAT at dopamine transporter came to 14.
Compound `COC(=O)C1=C(c2ccccc2)C[C@@H]2C[C@@H](O)[C@H]1N2C` (racemic) [Compound 8d, 2-Carbomethoxy-3-phenyl-7β-hydroxy-8-methyl-8-azabicyclo{3.2.1}oct-2-ene] gave a melting point of 113 to 114 °C. In addition, the 50% inhibitory concentration (IC50) on serotonin transporter was greater than 10000 nM. In addition, at dopamine transporter, the IC50 is greater than 10000 nM and the SERT/DAT worked out at 1.
Take `CCC(=O)[C@@H]1[C@H]2[C@H](O)C[C@@H](C[C@@H]1c1ccc(Cl)c(Cl)c1)N2C` (relative stereo) [Compound 23, 1-{3β-(3,4-Dichlorophenyl)-7β-hydroxy-8-methyl-8-azabicyclo{3.2.1}oct-2-yl}propan-1-one]: the melting point fell in the range of 195.5 to 196.5 °C. Besides, the IC50 at serotonin transporter is 97 nM. Further, at dopamine transporter, the IC50 is 0.81 nM.
Compound `COC(=O)C1C(c2ccc(F)cc2)CC2C(O)CC1N2C` (stereo not drawn) [Compound 14c, 2β-Carbomethoxy-3β-(4-fluorophenyl)-6β-hydroxy-8-methyl-8-azabicyclo{3.2.1}octane] had a melting point of 162 to 164 °C. Further, on serotonin transporter, the IC50 is greater than 20000 nM. For the same compound, on dopamine transporter, the SERT/DAT is greater than 42.
The compound `COC(=O)C1=C(c2ccc(F)cc2)CC2C(O)CC1N2C` (stereo not drawn) [Compound 7c, 2-Carbomethoxy-3-(4-fluorophenyl)-6β-hydroxy-8-methyl-8-azabicyclo{3.2.1}oct-2-ene] gave a melting point of 124 to 126 °C. On serotonin transporter, the IC50 is greater than 20000 nM. Further, on dopamine transporter, the IC50 was greater than 20000 nM and the SERT/DAT was 1.
`COC(=O)[C@@H]1[C@H]2[C@H](O)C[C@@H](C[C@H]1c1ccc(F)cc1)N2C` (relative stereo) [Compound 18c, 2β-Carbomethoxy-3α-(4-fluorophenyl)-7β-hydroxy-8-methyl-8-azabicyclo{3.2.1}octane] displayed a melting point of 177.2 to 179 °C. The IC50 on serotonin transporter was greater than 20000 nM. On dopamine transporter, the SERT/DAT is recorded as greater than 120.
With `COC(=O)[C@@H]1[C@H]2[C@H](O)C[C@@H](C[C@@H]1c1ccc3ccccc3c1)N2C` (relative stereo) [Compound 15b, 2β-Carbomethoxy-3β-(2-naphthyl)-7β-hydroxy-8-methyl-8-azabicyclo{3.2.1}octane], the melting point fell in the range of 207.5 to 208.5 °C. The same compound had an IC50 on serotonin transporter of 5.57 nM. Further, the SERT/DAT at dopamine transporter is 4.
Regarding `COC(=O)[C@H]1[C@@H](c2ccc(Cl)c(Cl)c2)C[C@@H]2[C@@H](O)C[C@H]1N2C` (relative stereo) [Compound 14a, 2β-Carbomethoxy-3β-(3,4-dichlorophenyl)-6β-hydroxy-8-methyl-8-azabicyclo{3.2.1}octane], the melting point was 93.5 to 95.5 °C. Besides, at serotonin transporter, the IC50 came out at 166 nM. In addition, the SERT/DAT on dopamine transporter turned out to be 55.
On to `COC(=O)[C@@H]1[C@H]2C[C@H](O)[C@@H](C[C@H]1c1ccc3ccccc3c1)N2C` (relative stereo) [Compound 17b, 2β-Carbomethoxy-3α-(2-naphthyl)-6β-hydroxy-8-methyl-8-azabicyclo{3.2.1}octane], for which the melting point is 93.5 to 94.5 °C. The IC50 at serotonin transporter was found to be 180 nM. The SERT/DAT at dopamine transporter turned out to be 6.
Turning to `COC(=O)C1=C(c2ccc3ccccc3c2)CC2CC(O)C1N2C` (stereo not drawn) [Compound 8b, 2-Carbomethoxy-3-(2-naphthyl)-7β-hydroxy-8-methyl-8-azabicyclo{3.2.1}oct-2-ene], the melting point fell in the range of 164.2 to 165.2 °C. This compound had an IC50 at serotonin transporter of 677 nM. In addition, on dopamine transporter, the SERT/DAT was determined as 15.
On the same counts, the results for `COC(=O)C1=C(c2ccc(Cl)c(Cl)c2)C[C@@H]2[C@@H](O)C[C@H]1N2C` (racemic) [Compound 7a, 2-Carbomethoxy-3-(3,4-dichlorophenyl)-6β-hydroxy-8-methyl-8-azabicyclo{3.2.1}oct-2-ene] are 94 to 96 °C, 3320 nM and 60.
For `COC(=O)C1C(c2ccc(Cl)c(Cl)c2)CC2CC(O)C1N2C` (racemic) [Compound 15a, 2β-Carbomethoxy-3β-(3,4-dichlorophenyl)-7β-hydroxy-8-methyl-8-azabicyclo{3.2.1}octane] the same measures were 185.5 to 186.5 °C, 27.7 nM and 20.
Compound `COC(=O)[C@@H]1[C@H]2[C@H](O)C[C@@H](C[C@H]1c1ccc3ccccc3c1)N2C` (relative stereo) [Compound 18b, 2β-Carbomethoxy-3α-(2-naphthyl)-7β-hydroxy-8-methyl-8-azabicyclo{3.2.1}octane] gave a melting point of 140.1 to 141.9 °C. Moreover, the IC50 at serotonin transporter was 94 nM. Also, on dopamine transporter, the SERT/DAT is on record as 34.
Compound `COC(=O)[C@@H]1[C@H]2[C@H](O)C[C@@H](C[C@@H]1c1ccc(F)cc1)N2C` (racemic) [Compound 15c, 2β-Carbomethoxy-3β-(4-fluorophenyl)-7β-hydroxy-8-methyl-8-azabicyclo{3.2.1}octane] yielded a melting point of 179.3 to 181.3 °C. Also, the half-maximal inhibitory concentration (IC50) at serotonin transporter is greater than 10000 nM. At dopamine transporter, the SERT/DAT is given as greater than 80.
Turning to `COC(=O)C1=C(c2ccccc2)CC2C(O)CC1N2C` (stereo not drawn) [Compound 7d, 2-Carbomethoxy-3-phenyl-6β-hydroxy-8-methyl-8-azabicyclo{3.2.1}oct-2-ene], the melting point was 165 to 167 °C. The compound further showed a concentration for half-maximal inhibition (IC50) on serotonin transporter greater than 100000 nM. In addition, at dopamine transporter, the IC50 was greater than 150000 nM and the SERT/DAT was 1.

These data come from patent US7199132B2, “Tropane analogs and methods for inhibition of monoamine transport” (Organix, Inc., priority 2001, dated 2007).
